Molecular target: fibrils of Aβ40 and Aβ42
Experiment: Inhibition of N-[^3H-methyl]6-OH-BTA-1 ([^3H]PIB) binding to β-amyloid fibrils, determination of Ki
Design: species or system Human
Conditions: radioligand used for Ki calculation; [L] 4 nM
Description: Human Aβ40 and Aβ42 peptides (Bachem) were incubated at 0.5 mg/ml in a solution of 10 mM Na2HPO4, 1 mM EDTA (pH 7.4) at 37° C. for 48 h. The formation of fibrils was confirmed by microscopy and binding of [^3H]6-OH-BTA-1 ([^3H]PIB). Fibrils were either used immediately or aliquoted and subsequently stored at −80° C. until use. Solutions of the test substances (>95% purity according to analytical HPLC) or 6-OH-BTA-1 (>95% purity according to analytical HPLC; ABX Biochemicals, Radeberg, Germany) and N—[^3H-methyl]6-OH-BTA-1 were prepared as 1-10 mM dimethyl sulfoxide (DMSO) stocks before dilution into assay buffer. The maximum final concentration of DMSO in the assays was 1%. All assays were performed in 10 mM Na2HPO4. The incubation was performed at 25° C. for 180 min. The bound and free fractions were separated by vacuum filtration through GF/B glass filters (Whatman, Maidstone, UK) using a Perkin Elmer harvester (PerkinElmer, 96 Micro B Filtermat) followed by 6×0.2 ml washes with ice cold phosphate buffer. Filters containing the bound ligand were counted with a liquid scintillation counter (Wallac Trilux, 1450 Microbeta). […] The inhibition of [^3H]PIB binding was measured for five different concentrations of the test compound in question, performed in duplicates.

## CNc1ccc(-c2nc3ccc(O)cc3s2)cc1 [[^3H]PIB, N-[^3H-methyl]6-OH-BTA-1]
  Kd: 4.2 nM

From patent US20120070374A1, “Compounds for Non-Invasive Measurement of Aggregates of Amyloid Peptides” (priority 2009, published 2012)
